# Reference: patent US12551447B2, “Combination solid oral dosage forms of gonadotropin-releasing hormone antagonists” (Sumitomo Pharma Co., Ltd., priority 2020, dated 2026)
# Assay: BioPharmaceutical Classification System (BCS) solubility and permeability class
# Assay type: physicochemical
# Conditions: BCS 4 = poorly soluble and poor permeability
# Method: The BioPharmaceutical Classification System (BCS) classifies drug substances as to their solubility and permeability. For example, a drug substance is considered highly soluble when the highest dose strength is soluble in ≤250 ml water over a pH range of 1-7, and highly permeable when the extent of absorption in humans is determined to be >90% of an administered dose, in comparison to an intravenous reference dose. A BCS 1 compound is highly soluble and highly permeable, while a BCS 4 compound is poorly soluble and has poor permeability. For BCS 4 compounds, bioavailability and the pharmacokinetic (PK) profile or parameters, such as mean maximum plasma concentration (Cmax), mean time to maximum plasma concentration (Tmax) and mean area under the plasma concentration vs. time curve (AUC) after oral administration, can be positively or negatively impacted by the formulation, the type of the excipients selected and the specific excipients. The safety and efficacy of the fixed combination oral product depends on these PK parameters being in the appropriate range. Compound 1 is a BCS 4 compound and therefore for fixed combination oral products having compound 1, or a corresponding amount of a pharmaceutically acceptable salt thereof, the type and specifics of the excipients must be carefully selected so as to achieve the target pharmacokinetic parameters.
compound,measurement,value
"CONC(=O)Nc1ccc(-c2sc3c(c2CN(C)C)c(=O)n(-c2ccc(OC)nn2)c(=O)n3Cc2c(F)cccc2F)cc1 [Compound 1, N-(4-(1-(2,6-difluorobenzyl)-5-((dimethylamino)methyl)-3-(6-methoxy-3-pyr-idazinyl)-2,4-dioxo-1,2,3,4-tetrahydrothieno[2,3-d]pyrimidin-6-yl)phenyl)-N′-methoxyurea]",BCS class,BCS 4
